In paper PMC12524796, “Discovery of Galloyl–Flavonoid Conjugates as SARS-CoV-2 3CL^pro Inhibitors: Understanding Binding Interactions Through Computational Approaches” (International Journal of Molecular Sciences, 2025):
Where two headings read alike, the source gives them in different places.

Legend:
SARS-CoV-2 3CL^pro [1] = target: T1, SARS-CoV-2 3CL^pro (Severe acute respiratory syndrome coronavirus 2, UniProt P0DTD1); design: method as in PMID 38277124
SARS-CoV-2 3CL^pro [2] = target: T1, SARS-CoV-2 3CL^pro; assay: biochemical; assay type: biochemical; details: for inhibition at 100 µM: read-out: SARS-CoV-2 3CL^pro Inhibition 100 µM (%)
3CL^pro = tested on: 3CL^pro; design: method as in PMID 32272481; details: read-out: IC50 against 3CL^pro; cited from earlier work
[3] = 100 µM compound; values marked footnote 3; cited from earlier work
[4] = read-out: SARS-CoV-2 3CL^pro Inhibition IC50; values marked footnote 3; cited from earlier work
[5] = FRET assay, read-out: SARS-CoV-2 3CL^pro Inhibition IC50
[6] = values marked footnote 3; read-out: SARS-CoV-2 3CL^pro Inhibition IC50; cited from earlier work

SMILES: COc1cc(O)cc(O)c1C(=O)/C=C/c1ccccc1 [Compound 8, cardamonin]
- SARS-CoV-2 3CL^pro Inhibition 100 µM (%) (SARS-CoV-2 3CL^pro [1]; [3]): 85.60 ± 2.44 ^3%
- IC50 (SARS-CoV-2 3CL^pro [1]; [4]): 57.4 µM

SMILES: COc1cc(OC(=O)c2cc(O)c(O)c(O)c2)cc(O)c1C(=O)/C=C/c1ccccc1 [Compound 38, 4′-O-galloylcardamonin]
- inhibition at 100 µM (SARS-CoV-2 3CL^pro [2]; 100 µM compound, FRET assay): > 99%
- IC50 (SARS-CoV-2 3CL^pro [2]; [5]): 13.3 µM

SMILES: C=CC(=O)Oc1c(C)c(O)c(C(=O)/C=C/c2ccccc2)c(OC)c1C [Compound 16, 4′-O-acryloyl-DMC]
- inhibition at 100 µM (SARS-CoV-2 3CL^pro [2]): 52.9 ± 1.17%

SMILES: COc1cc(OC(=O)c2ccccc2)c2c(c1)O[C@H](c1ccccc1)CC2=O [Compound 27, 5-O-benzoylpinostrobin]
- inhibition at 100 µM (SARS-CoV-2 3CL^pro [2]; 100 µM compound, FRET assay): 43.4 ± 3.99%
- IC50 (SARS-CoV-2 3CL^pro [2]; [5]): > 100 µM

SMILES: COc1c(C)c(O)c(C)c(O)c1C(=O)/C=C/c1ccccc1 [Compound 9, dimethylcardamonin]
- SARS-CoV-2 3CL^pro Inhibition 100 µM (%) (SARS-CoV-2 3CL^pro [1]; [3]): 84.59 ± 0.84 ^3%
- IC50 (SARS-CoV-2 3CL^pro [1]; [6]): 27.5 µM

SMILES: COc1cc(OC(=O)c2cc(OC(C)=O)c(OC(C)=O)c(OC(C)=O)c2)c2c(=O)cc(-c3ccccc3)oc2c1 [Compound 41, 5-O-(tri-O-acetylgalloyl)tectochrysin]
- inhibitory activity at 100 µM (in words) (SARS-CoV-2 3CL^pro [2]): moderate inhibitory activity
- inhibition at 100 µM (SARS-CoV-2 3CL^pro [2]): 72.8 ± 2.43%

SMILES: COc1cc(OC(=O)c2cc(O)c(O)c(O)c2)c2c(c1)O[C@H](c1ccccc1)CC2=O [Compound 31, 5-O-galloylpinostrobin]
- inhibition at 100 µM (SARS-CoV-2 3CL^pro [2]; 100 µM compound, FRET assay): > 99%
- IC50 (SARS-CoV-2 3CL^pro [2]; [5]): 7.42 µM
- increase of 3CL^pro inhibitory activity compared with the parent compound (SARS-CoV-2 3CL^pro [2]; versus parent compound): over 23 fold

SMILES: O=c1cc(-c2ccccc2)oc2cc(O)cc(O)c12 [Compound 11, chrysin]
- SARS-CoV-2 3CL^pro Inhibition 100 µM (%) (SARS-CoV-2 3CL^pro [1]; [3]): 87.73 ± 0.66 ^3%
- IC50 (SARS-CoV-2 3CL^pro [1]; [6]): 32.8 µM

SMILES: C=CC(=O)Oc1cc(OC)cc2oc(-c3ccccc3)cc(=O)c12 [Compound 19, 5-O-acryloyltectochrysin]
- inhibition at 100 µM (SARS-CoV-2 3CL^pro [2]; 100 µM compound, FRET assay): 37.2 ± 2.09%
- IC50 (SARS-CoV-2 3CL^pro [2]; [5]): > 100 µM

SMILES: COc1c([N+](=O)[O-])c(O)c2c(c1[N+](=O)[O-])O[C@H](c1ccccc1)CC2=O [Compound 24, 6,8-dinitropinostrobin]
- IC50 (SARS-CoV-2 3CL^pro [2]): > 100 µM
- inhibition at 100 µM (SARS-CoV-2 3CL^pro [2]): 40 ± 3.27%

SMILES: CC(=O)Oc1cc(C(=O)Oc2cc(O)c3c(c2)O[C@H](c2ccccc2)CC3=O)cc(OC(C)=O)c1OC(C)=O [Compound 35, 7-O-(tri-O-acetylgalloyl)pinocembrin]
- inhibitory activity at 100 µM (in words) (SARS-CoV-2 3CL^pro [2]): moderate inhibitory activity
- inhibition at 100 µM (SARS-CoV-2 3CL^pro [2]): 73 ± 1.66%

SMILES: O=c1cc(-c2ccccc2)oc2cc(O)c(O)c(O)c12 [Compound 1, baicalein, reference compound]
- SARS-CoV-2 3CL^pro Inhibition 100 µM (%) (SARS-CoV-2 3CL^pro [1]; [3]): 62.95 ± 3.10 ^3%

SMILES: COc1cc(OC(=O)c2cc(OC(C)=O)c(OC(C)=O)c(OC(C)=O)c2)c2c(c1)O[C@H](c1ccccc1)CC2=O [Compound 30, 5-O-(tri-O-acetylgalloyl)pinostrobin]
- inhibitory activity at 100 µM (in words) (SARS-CoV-2 3CL^pro [2]): moderate inhibitory activity
- inhibition at 100 µM (SARS-CoV-2 3CL^pro [2]): 67.1 ± 2.93%

SMILES: C=CC(=O)Oc1cc(O)c(C(=O)/C=C/c2ccccc2)c(OC)c1 [Compound 15, 4′-O-acryloylcardamonin]
- inhibition at 100 µM (SARS-CoV-2 3CL^pro [2]): 66.6 ± 2.05%

SMILES: COc1cc2c(c(O)c1[N+](=O)[O-])C(=O)C[C@@H](c1ccccc1)O2 [Compound 23, 6-nitropinostrobin]
- inhibition at 100 µM (SARS-CoV-2 3CL^pro [2]): 53.5 ± 4.31%

SMILES: O=C(O)c1cc(O)c(O)c(O)c1 [gallic acid, reference compound]
- IC50 (SARS-CoV-2 3CL^pro [2]): > 100 µM
- inhibition at 100 µM (SARS-CoV-2 3CL^pro [2]): 1.72 ± 12.1%

SMILES: C=CC(=O)Oc1c(C)c(OC)c(C(=O)/C=C/c2ccccc2)c(OC(=O)C=C)c1C [Compound 18, 2′,4′-O-diacryloyl-DMC]
- inhibition at 100 µM (SARS-CoV-2 3CL^pro [2]): 68 ± 3.77%

SMILES: COc1c(C)c(OC(=O)c2cc(OC(C)=O)c(OC(C)=O)c(OC(C)=O)c2)c(C)c(O)c1C(=O)/C=C/c1ccccc1 [Compound 39, 4′-O-(tri-O-acetylgalloyl)-DMC]
- inhibitory activity at 100 µM (in words) (SARS-CoV-2 3CL^pro [2]): moderate inhibitory activity
- inhibition at 100 µM (SARS-CoV-2 3CL^pro [2]): 72 ± 4.27%

SMILES: COc1cc(O)c2c(c1[N+](=O)[O-])O[C@H](c1ccccc1)CC2=O [Compound 22, 8-nitropinostrobin]
- inhibition at 100 µM (SARS-CoV-2 3CL^pro [2]): 55 ± 3.96%

SMILES: COc1cc2c(c(O)c1N)C(=O)C[C@@H](c1ccccc1)O2 [Compound 26, 6-aminopinostrobin]
- inhibition at 100 µM (SARS-CoV-2 3CL^pro [2]; 100 µM compound, FRET assay): 14.7 ± 5.85%
- IC50 (SARS-CoV-2 3CL^pro [2]; [5]): > 100 µM

SMILES: O=C1C[C@@H](c2ccccc2)Oc2cc(O)cc(O)c21 [Compound 7, pinocembrin]
- SARS-CoV-2 3CL^pro Inhibition 100 µM (%) (SARS-CoV-2 3CL^pro [1]; [3]): 27.18 ± 2.20 ^3%
- IC50 (SARS-CoV-2 3CL^pro [1]; [4]): > 200 µM

SMILES: C=CC(=O)Oc1cc(OC)c(C(=O)/C=C/c2ccccc2)c(OC(=O)C=C)c1 [Compound 17, 2′,4′-O-diacryloylcardamonin]
- inhibition at 100 µM (SARS-CoV-2 3CL^pro [2]): 76.8 ± 4.85%

SMILES: COc1cc(OC(=O)c2ccccc2OC(C)=O)c2c(c1)O[C@H](c1ccccc1)CC2=O [Compound 28, 5-O-(O-acetylsalicyloyl)pinostrobin]
- inhibition at 100 µM (SARS-CoV-2 3CL^pro [2]): 89.7 ± 5.92%

SMILES: O=C(Oc1cc(O)c2c(=O)cc(-c3ccccc3)oc2c1)c1cc(O)c(O)c(O)c1 [Compound 44, 7-O-galloylchrysin]
- inhibition at 100 µM (SARS-CoV-2 3CL^pro [2]; 100 µM compound, FRET assay): > 99%
- IC50 (SARS-CoV-2 3CL^pro [2]; [5]): 9.26 µM

SMILES: CC(=O)Oc1ccccc1C(=O)Oc1cc(O)c2c(c1)O[C@H](c1ccccc1)CC2=O [Compound 33, 7-O-(O-acetylsalicyloyl)pinocembrin]
- inhibition at 100 µM (SARS-CoV-2 3CL^pro [2]): 81.7 ± 0.89%

SMILES: C=CC(=O)Oc1cc(O)c2c(=O)cc(-c3ccccc3)oc2c1 [Compound 20, 7-O-acryloylchrysin]
- inhibition at 100 µM (SARS-CoV-2 3CL^pro [2]): 84.01 ± 0.82%

SMILES: COc1cc(O)c2c(=O)cc(-c3ccccc3)oc2c1 [Compound 10, tectochrysin]
- SARS-CoV-2 3CL^pro Inhibition 100 µM (%) (SARS-CoV-2 3CL^pro [1]; [3]): 86.39 ± 0.19 ^3%
- IC50 (SARS-CoV-2 3CL^pro [1]; [4]): 24 µM

SMILES: C=CC(=O)Oc1cc(OC(=O)C=C)c2c(=O)cc(-c3ccccc3)oc2c1 [Compound 21, 5,7-O-diacryloylchrysin]
- inhibition at 100 µM (SARS-CoV-2 3CL^pro [2]; 100 µM compound, FRET assay): 32.3 ± 4.83%
- IC50 (SARS-CoV-2 3CL^pro [2]; [5]): > 100 µM

SMILES: COc1cc(OC(=O)c2ccc(OC(C)=O)c(OC)c2)c2c(c1)O[C@H](c1ccccc1)CC2=O [Compound 29, 5-O-(O-acetylvanilloyl)pinostrobin]
- inhibition at 100 µM (SARS-CoV-2 3CL^pro [2]): 84.4 ± 3.91%

SMILES: COc1cc(OC(=O)c2cc(O)c(O)c(O)c2)c2c(=O)cc(-c3ccccc3)oc2c1 [Compound 42, 5-O-galloyltectochrysin]
- inhibition at 100 µM (SARS-CoV-2 3CL^pro [2]; 100 µM compound, FRET assay): > 99%
- IC50 (SARS-CoV-2 3CL^pro [2]; [5]): 20.6 µM

SMILES: COc1c(C)c(OC(=O)c2cc(O)c(O)c(O)c2)c(C)c(O)c1C(=O)/C=C/c1ccccc1 [Compound 40, 4′-O-galloyl-DMC]
- inhibition at 100 µM (SARS-CoV-2 3CL^pro [2]; 100 µM compound, FRET assay): > 99%
- IC50 (SARS-CoV-2 3CL^pro [2]; [5]): 6.85 µM

SMILES: COc1cc(OC(=O)c2cc(OC(C)=O)c(OC(C)=O)c(OC(C)=O)c2)cc(O)c1C(=O)/C=C/c1ccccc1 [Compound 37, 4′-O-(tri-O-acetylgalloyl)cardamonin]
- inhibitory activity at 100 µM (in words) (SARS-CoV-2 3CL^pro [2]): moderate inhibitory activity
- inhibition at 100 µM (SARS-CoV-2 3CL^pro [2]): 87.2 ± 3.25%

SMILES: COc1cc(O)c2c(c1N)O[C@H](c1ccccc1)CC2=O [Compound 25, 8-aminopinostrobin]
- inhibition at 100 µM (SARS-CoV-2 3CL^pro [2]; 100 µM compound, FRET assay): 38.2 ± 3.74%
- IC50 (SARS-CoV-2 3CL^pro [2]; [5]): > 100 µM

SMILES: O=c1c2ccccc2[se]n1-c1ccccc1 [Ebselen]
- IC50 (3CL^pro): 0.67 µM

SMILES: CC(=O)Oc1cc(C(=O)Oc2cc(O)c3c(=O)cc(-c4ccccc4)oc3c2)cc(OC(C)=O)c1OC(C)=O [Compound 43, 7-O-(tri-O-acetylgalloyl)chrysin]
- inhibitory activity at 100 µM (in words) (SARS-CoV-2 3CL^pro [2]): moderate inhibitory activity
- inhibition at 100 µM (SARS-CoV-2 3CL^pro [2]): 85.75 ± 0.48%

SMILES: O=C(Oc1cc(O)c2c(c1)O[C@H](c1ccccc1)CC2=O)c1ccccc1 [Compound 32, 7-O-benzoylpinocembrin]
- inhibition at 100 µM (SARS-CoV-2 3CL^pro [2]): 70.8 ± 2.72%

SMILES: COc1cc(C(=O)Oc2cc(O)c3c(c2)O[C@H](c2ccccc2)CC3=O)ccc1OC(C)=O [Compound 34, 7-O-(O-acetylvanilloyl)pinocembrin]
- inhibition at 100 µM (SARS-CoV-2 3CL^pro [2]): 83.7 ± 3.37%

SMILES: COc1cc(O)c2c(c1)O[C@H](c1ccccc1)CC2=O [Compound 6, pinostrobin]
- SARS-CoV-2 3CL^pro Inhibition 100 µM (%) (SARS-CoV-2 3CL^pro [1]; [3]): 26.44 ± 2.32 ^3%
- IC50 (SARS-CoV-2 3CL^pro [1]; [4]): > 200 µM

SMILES: O=C(Oc1cc(O)c2c(c1)O[C@H](c1ccccc1)CC2=O)c1cc(O)c(O)c(O)c1 [Compound 36, 7-O-galloylpinocembrin]
- inhibition at 100 µM (SARS-CoV-2 3CL^pro [2]; 100 µM compound, FRET assay): > 99%
- IC50 (SARS-CoV-2 3CL^pro [2]; [5]): 7.53 µM

SMILES: C=CC(=O)Oc1cc(OC(=O)C=C)c2c(c1)O[C@H](c1ccccc1)CC2=O [Compound 14, 5,7-O-diacryloylpinocembrin]
- inhibition at 100 µM (SARS-CoV-2 3CL^pro [2]): 76.2 ± 0.97%

SMILES: C=CC(=O)Oc1cc(O)c2c(c1)O[C@H](c1ccccc1)CC2=O [Compound 13, 7-O-acryloylpinocembrin]
- inhibition at 100 µM (SARS-CoV-2 3CL^pro [2]): 79.2 ± 1.52%
